Literature values as cited in patent publication US4599352A, “Antineoplastic platinum (IV) complexes and compositions” (priority 1984, dated 1986).

Key:
leukemia L1210 = conditions: cited from earlier work
[1] = tested on: sarcoma-180, ascites form; conditions: cited from earlier work

SMILES	Antitumor activity ranking (leukemia L1210)	Antitumor efficacy ranking [1]
[Cl][Pt]1([Cl])[NH]C2CCCCC2[NH]1 (single isomer, unassigned) [dichloro (1,2-diaminocyclohexane) platinum (II) complex trans (1) isomer]	highest activity	–
[Cl][Pt]1([Cl])[NH]C2CCCCC2[NH]1 (single isomer, unassigned) [dichloro (1,2-diaminocyclohexane) platinum (II) complex trans (d) isomer]	intermediate activity	–
NC1CCCCC1N.[Cl-].[Cl-].[Pt+2] (stereo not drawn) [Cis-dichloro-cis-1,2-cyclohexanediamine platinum (II)]	least active	more efficacious than the corresponding trans isomers
